According to patent US20060035291A1, “Method of detecting cellular immunity and application thereof to drugs” (priority 2001, published 2006):
Like-named read-outs stand apart in the source and are kept apart here. Where no end group is shown, it is not given here.

Columns and labels:
healthy donors = conditions: in vivo
[1] = tested on: HLA-A24 restricted antigen peptide-specific T cells (CTL precursors) in PBMCs; assay type: cell-based, human; conditions: for IFN-γ production 1st well / IFN-γ production 2nd well / IFN-γ production 3rd well: HLA-A24 positive cervical cancer patient; for CTL precursor induction assay, response level per well: quadricate assay; for IFN-γ production: background deducted
[2] = after more than 5 doses of cancer vaccine
[3] = before vaccination, response to HIV-C1R-A24 cells subtracted
[4] = HRPC Pt. 5, pre-vaccinated PBMCs

## AFLRHGAL
Healthy donors
  number of donors with a significant decrease in skin reaction: one

## AYDFLYNYL [SART2161]
Healthy donors
  rate of skin reaction occurrence (donors): no such response

## KFHGVIKDF [CypB 84-4G]
Healthy donors
  suppressed cases FR ≦ 0.25: 1/7

## AFLRHAAG
Healthy donors
  number of donors with a significant decrease in skin reaction: one

## KFHRGIKDF [CypB 84-5G]
Healthy donors
  suppressed cases FR ≦ 0.25: 0/7

## KFHRGIKDF
Healthy donors
  number of donors in whom the skin reaction was significantly decreased (<=0.25 of the rate in redness range): 0

## KFHGVIKDF
Healthy donors
  number of donors in whom the skin reaction was significantly decreased (<=0.25 of the rate in redness range): 1

## EYRGFTQDF [SART1690]
[1]; [2]
  IFN-γ production 1st well: 34 pg/well
  IFN-γ production 2nd well: 148 pg/well
  IFN-γ production 3rd well: 329 pg/well
[1]; [3]
  IFN-γ production 1st well: <0 pg/well
  IFN-γ production 3rd well: 133 pg/well
[1]; [4]
  CTL precursor induction assay, response level per well: C (C, 0.05<p≦0.1 and 50≦net)
[1]; HRPC Pt. 7, pre-vaccinated PBMCs
  CTL precursor induction assay, response level per well: ⊚BE

## DYSARWNEI [SART293]
[1]
  frequency of detection in the primary screening (patients): 4/10
[1]; [2]
  IFN-γ production 1st well: 12 pg/well
  IFN-γ production 2nd well: 58 pg/well
  IFN-γ production 3rd well: 21 pg/well
[1]; [3]
  IFN-γ production 1st well: <0 pg/well
  IFN-γ production 2nd well: 33 pg/well
  IFN-γ production 3rd well: 99 pg/well
[1]; HRPC Pt. 4, pre-vaccinated PBMCs
  CTL precursor induction assay, response level per well: ⊚ArB
[1]; [4]
  CTL precursor induction assay, response level per well: ⊚AAE
[1]; HRPC Pt. 9, pre-vaccinated PBMCs
  CTL precursor induction assay, response level per well: ⊚Ar
[1]; HRPC Pt. 10, pre-vaccinated PBMCs
  CTL precursor induction assay, response level per well: ⊚A

## AFLGHAAL [ART4 13-4G]
Healthy donors
  skin test, area of flare: 0 mm × mm
  suppressed cases FR ≦ 0.25: 4/4

## KFGRVIKDF
Healthy donors
  number of donors in whom the skin reaction was significantly decreased (<=0.25 of the rate in redness range): 2

## KGHRVIKDF [CypB 84-2G]
Healthy donors
  suppressed cases FR ≦ 0.25: 1/7

## AGLRHAAL [ART4 13-2G]
Healthy donors
  skin test, area of flare: 0 mm × mm
  suppressed cases FR ≦ 0.25: 4/4

## KFHRVGKDF
Healthy donors
  number of donors in whom the skin reaction was significantly decreased (<=0.25 of the rate in redness range): 3

## KFHRVIKDG
Healthy donors
  number of donors in whom the skin reaction was significantly decreased (<=0.25 of the rate in redness range): 2

## KFHRVGKDF [CypB 84-6G]
Healthy donors
  suppressed cases FR ≦ 0.25: 3/7

## KFHRVIGDF [CypB 84-7G]
Healthy donors
  suppressed cases FR ≦ 0.25: 1/7

## AFLGHAAL
Healthy donors
  skin reaction: did not induce skin reaction in any of 4 donors

## AGLRHAAL
Healthy donors
  skin reaction: did not induce skin reaction in any of 4 donors

## VYDYNCHVDL [SART3109]
Healthy donors
  rate of skin reaction occurrence: 17%
  rate of skin reaction occurrence (donors): 7/41

## GFLRHAAL [ART4 13-1G]
Healthy donors
  suppressed cases FR ≦ 0.25: 0/4

## AFGRHAAL
Healthy donors
  number of donors with a significant decrease in skin reaction: one

## KFHRVIKDG [CypB 84-9G]
Healthy donors
  suppressed cases FR ≦ 0.25: 2/7

## KFGRVIKDF [CypB 84-3G]
Healthy donors
  suppressed cases FR ≦ 0.25: 2/7

## KFHRVIKGF
Healthy donors
  number of donors in whom the skin reaction was significantly decreased (<=0.25 of the rate in redness range): 0

## AFLRGAAL [ART4 13-5G]
Healthy donors
  suppressed cases FR ≦ 0.25: 1/4

## AFLRHAAG [ART4 13-8G]
Healthy donors
  suppressed cases FR ≦ 0.25: 1/4

## KFHRVIGDF
Healthy donors
  number of donors in whom the skin reaction was significantly decreased (<=0.25 of the rate in redness range): 1

## AFLRHAGL [ART4 13-7G]
Healthy donors
  suppressed cases FR ≦ 0.25: 0/4

## RFYIQMCYEL [Flu peptide, reference compound]
[1]; protocol A: interval 1 day, 10 stimulations, 11 days, HLA-A24 positive healthy donors
  IFN-γ production: 0 pg/mL
[1]; protocol B: interval 2 days, 6 stimulations, 11 days, HLA-A24 positive healthy donors
  IFN-γ production: 227 pg/mL
[1]; protocol C: interval 3 days, 5 stimulations, 13 days, HLA-A24 positive healthy donors
  IFN-γ production: 242 pg/mL
[1]; protocol D: interval 4 days, 4 stimulations, 13 days, HLA-A24 positive healthy donors
  IFN-γ production: 29 pg/mL
[1]; protocol E: interval 5 days, 3 stimulations, 11 days, HLA-A24 positive healthy donors
  IFN-γ production: 16 pg/mL
[1]; protocol F: interval 6 days, 3 stimulations, 13 days, HLA-A24 positive healthy donors
  IFN-γ production: 0 pg/mL
[1]; protocol G: interval 7 days, 3 stimulations, 21 days, 24-well plate, radiated auto-PBMCs
  IFN-γ production: 150 pg/mL

## AFLRHGAL [ART4 13-6G]
Healthy donors
  suppressed cases FR ≦ 0.25: 1/4

## KGHRVIKDF
Healthy donors
  number of donors in whom the skin reaction was significantly decreased (<=0.25 of the rate in redness range): 1

## GFHRVIKDF [CypB 84-1G]
Healthy donors
  suppressed cases FR ≦ 0.25: 1/7

## KFHRVIKGF [CypB 84-8G]
Healthy donors
  suppressed cases FR ≦ 0.25: 0/7

## AFGRHAAL [ART4 13-3G]
Healthy donors
  suppressed cases FR ≦ 0.25: 1/4

## GFHRVIKDF
Healthy donors
  number of donors in whom the skin reaction was significantly decreased (<=0.25 of the rate in redness range): 1

## AFLRGAAL
Healthy donors
  number of donors with a significant decrease in skin reaction: one
